Target: T1, human GPR119 (Homo sapiens, UniProt Q8TDV5)
T1 construct: expressed in transfected cells; host or cells: Flp-in T-Rex-293 cells (Invitrogen #R78007), plasmid pcDNA5/FRT/TO, expression induced with tetracycline
T1 sequence (Q8TDV5 1-335): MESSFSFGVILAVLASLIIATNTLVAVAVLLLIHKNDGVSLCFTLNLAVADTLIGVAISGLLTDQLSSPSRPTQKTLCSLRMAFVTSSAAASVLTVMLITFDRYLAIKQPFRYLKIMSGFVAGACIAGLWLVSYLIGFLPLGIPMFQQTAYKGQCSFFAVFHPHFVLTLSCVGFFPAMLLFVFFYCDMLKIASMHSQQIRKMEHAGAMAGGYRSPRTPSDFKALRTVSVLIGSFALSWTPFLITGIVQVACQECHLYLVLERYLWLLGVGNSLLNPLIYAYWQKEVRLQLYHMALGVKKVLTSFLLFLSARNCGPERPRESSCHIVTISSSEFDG
Test: Measurement of intracellular cAMP in stable cell line expressing human GPR119 (GPR119 agonist effect)
Type: cell-based
Conditions: for EC50: increase of intracellular cAMP, Flp-in T-Rex-293 cells expressing human GPR119, 37° C. for 30 minutes
From the text: The GPR119 agonist effect is studied by measuring the effect of an analyte on increase of intracellular amount of cAMP in human GPR119 introduced cells. The testing method is described below.
Human GPR119 gene (NM 178471) is purchased from ATCC (ATCC No. 10807349), and is amplyfied according to PCR to form BamHI site at 5′ side and Apa I site at 3′ side. The primers are […] (sequence No. 1) and […] (sequence No. 2). The PCR conditions are described below.
The double-stranded DNA is thermally denatured using a DNA polymerase (KOD-Plus-Ver. 2; TOYOBO #KOD-211) at 98° C. for 10 seconds in one cycle. The denatured single-stranded DNA is annealed with the primers at 55° C. for 30 seconds. The DNA is subjected to an extension reaction at 68° C. for 1 minute and 15 seconds. The above-mentioned steps are repeated in 35 cycles. The PCR product is inserted into pcDNA5/FRT/TO (Invitrogen #V6520-20) plasmid. Flp-in T-Rex-293 cells (Invitorogen #R78007) are transfected with the obtained plasmid. The method of transfection is conducted in accordance with the protocol of the product.
(§1) The stable cell line expressing human GPR119 prepared in the above-mentioned method is plated on a 96-well plate at the concentration of 2,500 cells/well using Dulbecco's Modified Eagle Medium (DMEM) containing 10% fetal bovine serum (FBS). Twenty-four hours after plating, tetracyclin (Invitrogen #Q10019) is added at the final concentration of 20 ng/mL to induce hGPR119 gene expression. Twenty-four hours after, the medium is removed, and the cells are stimulated with an assay buffer (0.5 mM IBMX PBS (−)) containing the test compound at 37° C. for 30 minutes. The amount of the intracellular cAMP is measured using a commercially available kit (HitHunter™ cAMP XS+Assay: GE Healthcare #90007503) and a reader (FLUOstar Optima: BMG LABTECH). The test compound is dissolved in 100% DMSO, and added at the final concentration of 1%.
Human GPR119 gene (NM 178471) was purchased from ATCC (ATCC No. 10807349), and is amplyfied according to PCR to form BamHI site at 5′ side and Apa I site at 3′ side. The primers were […] (sequence No. 1) and […] (sequence No. 2). The PCR conditions are described below. The double-stranded DNA was thermally denatured using a DNA polymerase (KOD-Plus-Ver. 2; TOYOBO #KOD-211) at 98° C. for 10 seconds in one cycle. The denatured single-stranded DNA was annealed with the primers at 55° C. for 30 seconds. The DNA was subjected to an extension reaction at 68° C. for 1 minute and 15 seconds. The above-mentioned steps were repeated in 35 cycles. The PCR product was inserted into pcDNA5/FRT/TO (Invitrogen #V6520-20) plasmid. Flp-in T-Rex-293 cells (Invitorogen #R78007) were transfected with the obtained plasmid. The method of transfection was conducted in accordance with the protocol of the product.
as §1, with “method was” for “method is”, “#Q10019) was” for “#Q10019) is”, “medium was” for “medium is”, “cells were” for “cells are”, “cAMP was” for “cAMP is”, “compound was” for “compound is”
The examination was performed by the method similar to Example 87 Pharmacological experiment 1-(1), -(2).

| Compound | EC50 [nM] | GPR119 agonist effect (in words) (statement in words on Tables 10 to 13) |
| --- | --- | --- |
| CC(C)(C)OC(=O)N1CCC(c2ccc(Cn3ccc4cc(S(C)(=O)=O)cc(C(F)(F)F)c43)nc2)CC1 [Example 49, tert-Butyl 4-[2-(5-methanesulfonyl-7-trifluoromethylindol-1-ylmethyl)pyridin-5-yl]piperidine-1-carboxylate] | 297 | – |
| C[C@H]1CC(c2ccc(Cn3ccc4cc(S(C)(=O)=O)ccc43)nc2)C[C@H](C)N1C(=O)OC(C)(C)C (stereo partly drawn) [Example 69, tert-Butyl (2S,6S)-2,6-dimethyl-4-[2-(5-methanesulfonylindol-1-ylmethyl)pyridin-5-yl]piperidine-1-carboxylate] | 17.5 | – |
| CC(C)(C)OC(=O)N1CCC(c2ccc(Cn3ccc4cc(S(C)(=O)=O)ccc43)nc2)C1 (centres unmarked) [Example 50, tert-Butyl 3-[2-(5-methanesulfonylindol-1-ylmethyl)pyridin-5-yl]pyrrolidine-1-carboxylate] | 375 | – |
| CC(C)(C)OC(=O)N1CCC(c2ccc(Cn3ccc4cc(S(C)(=O)=O)cc(Cl)c43)nc2)CC1 [Example 27, tert-Butyl 4-[2-(7-chloro-5-methanesulfonylindol-1-ylmethyl)pyridin-5-yl]piperidine-1-carboxylate] | 13.9 | – |
| CC(C)(C)OC(=O)N1CCC(c2ccc(Cn3ccc4cc(-n5cncn5)ccc43)nc2)CC1 [Example 56, tert-Butyl 4-[2-[5-(1,2,4-triazol-1-yl)indol-1-ylmethyl]pyridin-5-yl]piperidine-1-carboxylate] | 26.2 | – |
| CC1CN(C(=O)OC(C)(C)C)CC=C1c1ccc(Cn2ccc3c(F)c(S(C)(=O)=O)c(F)cc32)nc1 (centres unmarked) [Example 62, tert-Butyl 4-[2-(4,6-difluoro-5-methanesulfonylindol-1-ylmethyl)pyridin-5-yl]-3-methyl-3,6-dihydro-2H-pyridine-1-carboxylate] | 65.2 | – |
| CC(C)(C)OC(=O)N1CCC(c2ccc(Cn3ccc4c(F)c(S(C)(=O)=O)c(F)cc43)nc2)CC1 [Example 57, tert-Butyl 4-[2-(4,6-difluoro-5-methanesulfonylindol-1-ylmethyl)pyridin-5-yl]piperidine-1-carboxylate] | 17.4 | – |
| CC(C)(C)OC(=O)N1CCC(c2ccc(Cn3ccc4cc(S(C)(=O)=O)cc(N)c43)nc2)CC1 [Example 19, tert-Butyl 4-[2-(7-amino-5-methanesulfonylindol-1-ylmethyl)pyridin-5-yl]piperidine-1-carboxylate] | 181 | – |
| CC(C)(C)OC(=O)N1CCC(c2cnc(Cn3ccc4cc(S(C)(=O)=O)ccc43)c(Cl)c2)CC1 [Example 14, tert-Butyl 4-[3-chloro-2-(5-methanesulfonylindol-1-ylmethyl)pyridin-5-yl]piperidine-1-carboxylate] | 9.5 | – |
| CC(C)(C)OC(=O)N1CCC(c2ccc(Cn3ccc4cc(-n5cnnn5)cc(F)c43)nc2)CC1 [Example 41, tert-Butyl 4-[2-[7-fluoro-5-(tetrazol-1-yl)indol-1-ylmethyl]pyridin-5-yl]piperidine-1-carboxylate] | 3.7 | excellent GPR119 agonist effect |
| CC(C)(C)OC(=O)N1CCC(c2ccc(Cn3ccc4cc(S(C)(=O)=O)ncc43)nc2)CC1 [Example 29, tert-Butyl 4-[2-(5-methanesulfonyl-1H-pyrrolo[2,3-c]pyridin-1-ylmethyl)pyridin-5-yl]piperidine-1-carboxylate] | 39 | – |
| CC(C)(C)OC(=O)N1CCC(c2ccc(Cn3ncc4cc(S(C)(=O)=O)ccc43)nc2)CC1 [Example 21, tert-Butyl 4-[2-(5-methanesulfonylindazol-1-ylmethyl)pyridin-5-yl]piperidine-1-carboxylate] | 428 | – |
| CC(C)OC(=O)N1CC=C(c2ccc(Cn3ccc4cc(-n5cnnn5)cc(F)c43)nc2)C(C)C1 (centres unmarked) [Example 67, Isopropyl 4-[2-[7-fluoro-5-(tetrazol-1-yl)indol-1-ylmethyl]pyridin-5-yl]-3-methyl-3,6-dihydro-2H-pyridine-1-carboxylate] | 45.9 | – |
| CC(C)(C)OC(=O)N1CCC(c2ccc(Cn3ccc4cc(S(C)(=O)=O)cc(F)c43)nc2)CC1 [Example 11, tert-Butyl 4-[2-(7-fluoro-5-methanesulfonylindol-1-ylmethyl)pyridin-5-yl]piperidine-1-carboxylate] | 21.4 | – |
| CC(C)(C)OC(=O)N1CC=C(c2ccc(Cn3ccc4cc(S(C)(=O)=O)ccc43)nc2)C(C)(C)C1 [Example 45, tert-Butyl 3,3-dimethyl-4-[2-(5-methanesulfonylindol-1-ylmethyl)pyridin-5-yl]-3,6-dihydro-2H-pyridine-1-carboxylate] | 186 | – |
| CCc1cnc(N2CCC(c3ccc(Cn4ccc5cc(-n6cnnn6)ccc54)nc3)CC2)nc1 [Example 33, 5-Ethyl-2-[4-[2-[5-(tetrazol-1-yl)indol-1-ylmethyl]pyridin-5-yl]piperidin-1-yl]pyrimidine] | 15.5 | – |
| CC(C)(C)OC(=O)N1CCC(c2ccc(-c3cc4cc(S(C)(=O)=O)ccc4o3)nc2)CC1 [Example 9, tert-Butyl 4-[2-(5-methanesulfonylbenzofuran-2-yl)pyridin-5-yl]piperidine-1-carboxylate] | 420 | – |
| Cc1cc(C2CCN(C(=O)OC(C)C)CC2)cnc1Cn1ccc2cc(-n3cncn3)ccc21 [Example 59, Isopropyl 4-[3-methyl-2-[5-(1,2,4-triazol-1-yl)indol-1-ylmethyl]pyridin-5-yl]piperidine-1-carboxylate] | 104 | – |
| CC(C)(C)OC(=O)N1CCC(c2ccc(Cn3ccc4cc(S(C)(=O)=O)c(F)c(F)c43)nc2)CC1 [Example 55, tert-Butyl 4-[2-(6,7-difluoro-5-methanesulfonylindol-1-ylmethyl)pyridin-5-yl]piperidine-1-carboxylate] | 10.7 | – |
| CCc1cnc(N2CCC(c3ccc(Cn4ccc5cc(S(C)(=O)=O)ccc54)nc3)CC2)nc1 [Example 30, 5-Ethyl-2-[4-[2-(5-methanesulfonylindol-1-ylmethyl)pyridin-5-yl]piperidin-1-yl]pyrimidine] | 11.7 | – |
| Cc1cc(S(C)(=O)=O)cc2ccn(Cc3ccc(C4CCN(C(=O)OC(C)(C)C)CC4)cn3)c12 [Example 26, tert-Butyl 4-[2-(5-methanesulfonyl-7-methylindol-1-ylmethyl)pyridin-5-yl]piperidine-1-carboxylate] | 59.3 | – |
| CC1CN(C(=O)OC(C)(C)C)CC=C1c1ccc(Cn2ccc3cc(S(C)(=O)=O)ccc32)nc1 (centres unmarked) [Example 43, tert-Butyl 4-[2-(5-methanesulfonylindol-1-ylmethyl)pyridin-5-yl]-3-methyl-3,6-dihydro-2H-pyridine-1-carboxylate] | 58.7 | – |
